Laboratory results taken from patent US20030166583A1, “Dermal cytochrome P450 1A inhibitors and enhancers” (priority 2002, published 2003).
Entries after “also recorded” stand apart in the source; their conditions may differ.

Legend:
dermal CYP1A = test: Dermal microsomal CYP1A enzymatic activity (7-ethoxyresorufin-O-deethylase), inhibition or enhancement; conditions: for inhibitory effect on dermal CYP1A activity, in words: at certain concentration (1, 10 or 100 μM); for enhancing effect on dermal CYP1A activity, in words: at certain concentrations (1, 10 or 100 μM)
Description: (§1) Nude mice were sacrificed by decapitation.
(§2) The precipitate containing the microsomes was obtained.

CYP1A [1] = test: in vitro; conditions: nude, mouse
Description: as §1, §2

liver CYP1A = test: Liver microsomal CYP1A enzymatic activity, inhibition or enhancement; conditions: for enhancing effect on liver CYP1A activity, in words / inhibitory effect on liver CYP1A activity, in words: at certain concentration (1, 10 or 100 μM); for liver CYP1A activity (% of control group): liver microsomes
Description: (§3) Nude mice were sacrificed by decapitation. The skin and liver were immediately removed and kept in ice bath or 4° C. […] Connective tissue, blood, and fat were carefully removed from the tissue. Excess water content was removed from the homogenized tissue by tissue papers before the tissue was weighed.
(§4) The suspension of homogenized tissue in potassium chloride solution was transferred into a Teflon pestle-glass homogenizer for homogenization for six (6) times. Then, potassium chloride solution was added into the homogenized suspension to bring the volume to about four (4) times of the homogenized suspension. The diluted suspension was 5 transferred into a centrifuge tube and centrifuged at 4° C., 9000 xg, for twenty (20) minutes. The supernatant containing microsomes from skin or liver tissue and other soluble substance were removed and the volume of the supernatant was brought up to four (4) times of the weight of the tissue by adding potassium chloride solution. The diluted supernatant was transferred into a centrifuge tube and centrifuged at 4° C., 100,000 xg, for one (1) hour (Beckman L8-80M). The precipitate containing the microsomes was obtained. Potassium chloride solution was added into the precipitate to bring the volume up to four (4) times of the weight of the tissue, and the suspension was centrifuged at 4° C., 100,000 xg for one (1) hour, to obtain the washed microsomes, which were stored at −78° C. in 0.1M KH2PO4-K2HPO4 buffer (pH=7.4).
(§5) The enzymatic activity of CYP1A was determined based on the activity of 7-ethoxyresorufin-O-deethylase (i.e., for CYP1A) and 7-methoxyresorufin-O-demethylase (i.e., CYP1A2). […] Except for the blank group, the reaction was triggered by adding 0.54 μM NADPH. In the test tube (16×100 mm), the reaction was carried out for ten (10) minutes at constant temperature (37° C.) with vibration and without light Methanol 2.5 ml was added into the reaction mixture to stop the reaction. Protein precipitate was removed from the reaction mixture by centrifuging the reaction mixture at 180 xg for ten (10) minutes. The supernatant was tested for florescent intensity with 550 nm as the excitation wavelength and 585 nm the emission wavelength. The florescent intensity was compared with 0.01 μM-0.1 μM standard Rhodamine B solution to obtain the reading of the CYP1A enzyme activity.

CYP1A [2] = test: as above; conditions: nude, mouse, liver microsomes, pH 7.8, probe 7-ethoxyresorufin
Description: as §3, §4, §5

[3] = compound 1 μM, skin microsomes, mean of at least 3 repeats
[4] = compound 10 μM, skin microsomes, mean of at least 3 repeats
[5] = compound 100 μM, skin microsomes, mean of at least 3 repeats
[6] = pH 7.8, dermal CYP1A activity (% of control group)
[7] = pH 7.8, inhibition of dermal CYP1A activity

Compound	inhibitory effect on dermal CYP1A activity, in words (dermal CYP1A)	enhancing effect on liver CYP1A activity, in words (liver CYP1A)	dermal CYP1A activity (% of control group) (dermal CYP1A; [3])	dermal CYP1A activity (% of control group) (dermal CYP1A; [4])	dermal CYP1A activity (% of control group) (dermal CYP1A; [5])	liver CYP1A activity (% of control group) (liver CYP1A; compound 1 μM)	liver CYP1A activity (% of control group) (liver CYP1A; compound 10 μM)	liver CYP1A activity (% of control group) (liver CYP1A; compound 100 μM)	further results
C=C(C)C1CC=C(C)CC1 (single isomer, unassigned; (+)) [(+)-Limonene]	inhibition effects	–	–	–	–	–	–	–	enhancing effect on dermal CYP1A activity, in words (dermal CYP1A): enhancing effects; inhibition of dermal CYP1A activity (dermal CYP1A; compound 1 μM): about 51%
CC(=O)OCCCc1ccccc1 [3-Phenyl propyl acetate, 3-phenylpropyl acetate]	–	enhancing effect; also recorded: most enhancing effect	–	–	–	–	–	–	activity at 10 min, 1 µM (CYP1A [1]; pH 7.8): 28.3%; activity at 10 min, 10 µM (CYP1A [1]; pH 7.8): 89.4%; activity at 10 min, 100 µM (CYP1A [1]; pH 7.8): 85%; inhibition at 10 min, 1 µM (CYP1A [1]; pH 7.8): ~72%; enhancing effect on liver CYP1A activity, in words (liver CYP1A; listed as 3-phenylpryl acetate): enhancing effect; activity at 10 min, 1 µM (CYP1A [2]): 151%; activity at 10 min, 10 µM (CYP1A [2]): 143%; activity at 10 min, 100 µM (CYP1A [2]): 157%
Oc1cc(O)c2c(c1)O[C@H](c1ccc(O)c(O)c1)[C@@H](O)C2 [(+)-Catechin]	inhibition effects	enhancing effect	78.10%	91.97%	99.99%	90.00%	120.23%	116.48%	enhancing effect on dermal CYP1A activity, in words (dermal CYP1A): enhancing effects; inhibition of dermal CYP1A activity (dermal CYP1A; compound 1 μM): about 22%; inhibitory effect on liver CYP1A activity, in words (liver CYP1A): inhibitory effects
Oc1cc(O)c2c(c1)O[C@@H](c1ccc(O)c(O)c1)[C@@H](O)C2 [(+)-Epicatechin]	inhibition effects	enhancing effect	65.55%	86.15%	105.09%	124.29%	129.86%	130.95%	enhancing effect on dermal CYP1A activity, in words (dermal CYP1A): enhancing effects; inhibition of dermal CYP1A activity (dermal CYP1A; compound 1 μM): about 34%
Oc1cc(O)c2c(c1)O[C@H](c1ccc(O)c(O)c1)[C@H](O)C2 [(−)-Epicatechin]	inhibition effects	enhancing effect; also recorded: most enhancing effect	85.69%	121.77%	129.82%	133.54%	139.91%	147.44%	enhancing effect on dermal CYP1A activity, in words (dermal CYP1A): enhancing effects; also recorded: strongest enhancing effect; enhancement of dermal CYP1A activity (dermal CYP1A; compound 10 μM): 22%; enhancement of dermal CYP1A activity (dermal CYP1A; compound 100 μM): about 30%; enhancement of dermal microsomal CYP1A activity (dermal CYP1A; concentration between about 10 μM and about 100 μM): at least 20%; enhancing effect on liver CYP1A activity (liver CYP1A; compound 1 μM): about 34%
O=c1cc(-c2ccccc2)oc2cc(O)c(O)c(O)c12 [Baicalein]	inhibition effects	enhancing effect	64.73%	48.84%	55.82%	110.67%	114.18%	–	inhibition of dermal CYP1A activity (dermal CYP1A; compound 10 μM): about 47%
O=C(O)[C@H]1O[C@@H](Oc2cc3oc(-c4ccccc4)cc(=O)c3c(O)c2O)[C@H](O)[C@@H](O)[C@@H]1O [Baicalin]	inhibition effects	enhancing effect	90.14%	82.85%	75.91%	106.19%	90.79%	106.06%	inhibition of dermal CYP1A activity (dermal CYP1A; compound 100 μM): about 24%; inhibitory effect on liver CYP1A activity, in words (liver CYP1A): inhibitory effects
C=CC(=C)CCC=C(C)C [Beta-Myrcene]	–	enhancing effect	–	–	–	–	–	–	activity at 10 min, 1 µM (CYP1A [1]; pH 7.8): 101%; activity at 10 min, 10 µM (CYP1A [1]; pH 7.8): 78.2%; activity at 10 min, 100 µM (CYP1A [1]; pH 7.8): 73.6%; inhibition at 10 min, 100 µM (CYP1A [1]; pH 7.8): ~26%; inhibitory effect on liver CYP1A activity, in words (liver CYP1A): inhibitory effects; activity at 10 min, 1 µM (CYP1A [2]): 82%; activity at 10 min, 10 µM (CYP1A [2]): 98%; activity at 10 min, 100 µM (CYP1A [2]): 100%
O=c1c(-c2ccc(O)cc2)coc2cc(O)ccc12 [Daidzein]	–	–	–	–	–	–	–	–	activity at 10 min, 1 µM (CYP1A [1]; [6]): 77.5%; activity at 10 min, 10 µM (CYP1A [1]; [6]): 71.7%; activity at 10 min, 100 µM (CYP1A [1]; [6]): 77.2%; inhibition at 10 min, 10 µM (CYP1A [1]; [7]): ~28%; activity at 10 min, 1 µM (CYP1A [2]): 109%; activity at 10 min, 10 µM (CYP1A [2]): 112%; activity at 10 min, 100 µM (CYP1A [2]): 135%
O=C(O)c1cc(O)c(O)c(O)c1 [Gallic acid]	–	–	–	–	–	–	–	–	activity at 10 min, 1 µM (CYP1A [1]; [6]): 102%; activity at 10 min, 10 µM (CYP1A [1]; [6]): 107%; activity at 10 min, 100 µM (CYP1A [1]; [6]): 88.2%; inhibition at 10 min, 100 µM (CYP1A [1]; [7]): ~12%; activity at 10 min, 10 µM (CYP1A [2]): 123%; activity at 10 min, 100 µM (CYP1A [2]): 105%
COc1ccc([C@@H]2CC(=O)c3c(O)cc(O)cc3O2)cc1O [Hesperetin]	–	–	–	–	–	–	–	–	dose dependence of the inhibitory effect on dermal CYP1A (dermal CYP1A): the higher the hesperetin concentration, the lower the inhibitory effect; dermal CYP1A activity (% of control group) (dermal CYP1A; nude, mouse, 10 min, 1 µM, pH 7.8): 6.89%; activity at 10 min, 1 µM (CYP1A [1]; [6]): ~7%; activity at 10 min, 10 µM (CYP1A [1]; [6]): 24.6%; activity at 10 min, 100 µM (CYP1A [1]; [6]): 66%; inhibition at 10 min, 1 µM (CYP1A [1]; [7]): > 90%
COc1ccc([C@@H]2CC(=O)c3c(O)cc(O[C@@H]4O[C@H](CO[C@@H]5O[C@@H](C)[C@H](O)[C@@H](O)[C@H]5O)[C@@H](O)[C@H](O)[C@H]4O)cc3O2)cc1O [Hesperidin]	inhibition effects	enhancing effect	62.61%	52.72%	57.75%	99.65%	87.38%	102.94%	inhibition of dermal CYP1A activity (dermal CYP1A; compound 10 μM): about 47%; inhibitory effect on liver CYP1A activity, in words (liver CYP1A): inhibitory effects
O=c1cc(-c2ccc(O)c(O)c2)oc2cc(O[C@@H]3O[C@H](CO)[C@@H](O)[C@H](O)[C@H]3O)cc(O)c12 [Luteolin-7-glucoside]	inhibition effects	enhancing effect	105.07%	88.05%	2.53%	109.79%	119.53%	123.78%	inhibitory effect on dermal CYP1A activity, in words (dermal CYP1A; listed as luteolin-7-glycoside): strongest inhibitory effect; also recorded: most effective inhibitors; enhancing effect on dermal CYP1A activity, in words (dermal CYP1A): enhancing effects; inhibition of dermal CYP1A activity (dermal CYP1A; compound 100 μM, 100 µM): about 97%
O=c1cc(-c2ccc(O)c(O)c2)oc2cc(O)cc(O)c12 [Luteolin]	–	–	–	–	–	–	–	–	activity at 10 min, 1 µM (CYP1A [1]; [6]): 59.1%; activity at 10 min, 10 µM (CYP1A [1]; [6]): 19.4%; activity at 10 min, 100 µM (CYP1A [1]; [6]): 10.4%; inhibition at 10 min, 100 µM (CYP1A [1]; [7]): ~90%; activity at 10 min, 1 µM (CYP1A [2]): 115%; activity at 10 min, 10 µM (CYP1A [2]): 104%; activity at 10 min, 100 µM (CYP1A [2]): 33.4%
O=C1C[C@@H](c2ccc(O)cc2)Oc2cc(O)cc(O)c21 [Narigenin]	inhibition effects	enhancing effect	29.41%	34.90%	17.26%	116.45%	107.17%	41.64%	inhibition of dermal CYP1A activity (dermal CYP1A; compound 100 μM): about 83%; inhibitory effect on liver CYP1A activity, in words (liver CYP1A): inhibitory effects
C[C@@H]1O[C@@H](O[C@H]2[C@H](Oc3cc(O)c4c(c3)O[C@H](c3ccc(O)cc3)CC4=O)O[C@H](CO)[C@@H](O)[C@@H]2O)[C@H](O)[C@H](O)[C@H]1O [Narigin]	inhibition effects	enhancing effect; also recorded: most enhancing effect	149.99%	103.30%	77.31%	138.88%	119.79%	120.55%	enhancing effect on dermal CYP1A activity, in words (dermal CYP1A): enhancing effects; also recorded: strongest enhancing effect; enhancement of dermal CYP1A activity (dermal CYP1A; compound 1 μM): about 50%; inhibition of dermal CYP1A activity (dermal CYP1A; compound 100 μM): about 23%; enhancing effect on liver CYP1A activity (liver CYP1A; compound 100 μM): about 21%
C=C[C@H]1[C@H](O[C@@H]2O[C@H](CO)[C@@H](O)[C@H](O)[C@H]2O)OC=C2C(=O)OCC[C@]21O [Swertiamarin]	–	–	–	–	–	–	–	–	activity at 10 min, 1 µM (CYP1A [1]; pH 7.8): 98.5%; activity at 10 min, 10 µM (CYP1A [1]; pH 7.8): 96.5%; activity at 10 min, 100 µM (CYP1A [1]; pH 7.8): 105%
O=C/C=C/c1ccccc1 [Trans-cinnamaldehyde]	–	–	–	–	–	–	–	–	inhibition at 10 min, 100 µM (CYP1A [1]; pH 7.8): ~80%
O=C(O)/C=C/c1ccc(O)cc1O [Umbellic acid]	–	enhancing effect	–	–	–	–	–	–	activity at 10 min, 100 µM (CYP1A [2]): 121%
COc1c(O)cc2oc(Oc3ccc(O)cc3)cc(=O)c2c1O [capillarisin, Capillarisin]	strong inhibitory effects	–	–	–	–	–	–	–	–
O=c1cc(-c2ccc(O)c(O)c2)oc2cc(O)c([C@@H]3O[C@H](CO)[C@@H](O)[C@H](O)[C@H]3O)c(O)c12 [homoorientin]	strong inhibitory effects	–	–	–	–	–	–	–	–
